# Columns and labels:
# Assay in all cases: relative viability (nuclei count vs DMSO), 5 days (fraction); higher = more cells survive
# A-427 = test system: A-427
# Summary of the method: (§1)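 A single step with final 0.05% Triton X-100, 1% formaldehyde and 1 ug/ml Hoechst fixed the cells and stained nuclei 5 days after treatment. Lung cancer cell lines in 1536-well plates had been treated by pin tool the day after seeding with one drug alone or a fixed anchor-drug dose plus five library-drug doses (not always all listed) in √10 steps, and nuclei were counted on 4× images. Relative viability is the ratio of nuclei in treated wells to nuclei in vehicle wells, taken as the median of duplicate plates.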
# EPLC-272H = test system: EPLC-272H
# Summary of the method: as §1
# HCC-15 = test system: HCC-15
# Summary of the method: as §1
# LC-2-ad = test system: LC-2-ad
# Summary of the method: as §1
# LK-2 = test system: LK-2
# Summary of the method: as §1
# NCI-H1734 = test system: NCI-H1734
# Summary of the method: as §1
# NCI-H1793 = test system: NCI-H1793
# Summary of the method: as §1
# NCI-H1915 = test system: NCI-H1915
# Summary of the method: as §1
# NCI-H1944 = test system: NCI-H1944
# Summary of the method: as §1
# NCI-H2009 = test system: NCI-H2009
# Summary of the method: as §1
# NCI-H2023 = test system: NCI-H2023
# Summary of the method: as §1
# NCI-H2342 = test system: NCI-H2342
# Summary of the method: as §1
# NCI-H2347 = test system: NCI-H2347
# Summary of the method: as §1
# NCI-H322M = test system: NCI-H322M
# Summary of the method: as §1
# NCI-H358 = test system: NCI-H358
# Summary of the method: as §1
# NCI-H441 = test system: NCI-H441
# Summary of the method: as §1
# NCI-H522 = test system: NCI-H522
# Summary of the method: as §1
# NCI-H647 = test system: NCI-H647
# Summary of the method: as §1
# NCI-H838 = test system: NCI-H838
# Summary of the method: as §1
# RERF-LC-KJ = test system: RERF-LC-KJ
# Summary of the method: as §1
# SW 1573 = test system: SW 1573
# Summary of the method: as §1
# UMC-11 = test system: UMC-11
# Summary of the method: as §1
smiles,measurement,setting,value
Cc1cn(-c2cc(NC(=O)c3ccc(C)c(Nc4nccc(-c5cccnc5)n4)c3)cc(C(F)(F)F)c2)cn1 [Nilotinib] + CC(=O)Nc1cccc(-n2c(=O)n(C3CC3)c(=O)c3c(Nc4ccc(I)cc4F)n(C)c(=O)c(C)c32)c1 [Trametinib] (partner 0.02 µM),relative viability,A-427; first compound 0.001 µM,0.812
same,relative viability,A-427; first compound 0.003162 µM,0.567
same,relative viability,A-427; first compound 0.01 µM,0.73
same,relative viability,A-427; first compound 0.03162 µM,0.522
same,relative viability,A-427; first compound 0.1 µM,0.556
same,relative viability,EPLC-272H; first compound 0.001 µM,0.289
same,relative viability,EPLC-272H; first compound 0.003162 µM,0.233
same,relative viability,EPLC-272H; first compound 0.01 µM,0.34
same,relative viability,EPLC-272H; first compound 0.03162 µM,0.273
same,relative viability,EPLC-272H; first compound 0.1 µM,0.225
same,relative viability,HCC-15; first compound 0.001 µM,0.375
same,relative viability,HCC-15; first compound 0.003162 µM,0.357
same,relative viability,HCC-15; first compound 0.01 µM,0.369
same,relative viability,HCC-15; first compound 0.03162 µM,0.284
same,relative viability,HCC-15; first compound 0.1 µM,0.233
same,relative viability,LC-2-ad; first compound 0.001 µM,0.876
same,relative viability,LC-2-ad; first compound 0.003162 µM,1.09
same,relative viability,LC-2-ad; first compound 0.01 µM,0.967
same,relative viability,LC-2-ad; first compound 0.03162 µM,0.596
same,relative viability,LC-2-ad; first compound 0.1 µM,0.517
same,relative viability,LK-2; first compound 0.001 µM,0.514
same,relative viability,LK-2; first compound 0.003162 µM,0.515
same,relative viability,LK-2; first compound 0.01 µM,0.687
same,relative viability,LK-2; first compound 0.03162 µM,0.46
same,relative viability,LK-2; first compound 0.1 µM,0.608
same,relative viability,NCI-H1734; first compound 0.001 µM,0.57
same,relative viability,NCI-H1734; first compound 0.003162 µM,0.664
same,relative viability,NCI-H1734; first compound 0.01 µM,0.547
same,relative viability,NCI-H1734; first compound 0.03162 µM,0.345
same,relative viability,NCI-H1734; first compound 0.1 µM,0.349
same,relative viability,NCI-H1793; first compound 0.001 µM,0.403
same,relative viability,NCI-H1793; first compound 0.003162 µM,0.396
same,relative viability,NCI-H1793; first compound 0.01 µM,0.328
same,relative viability,NCI-H1793; first compound 0.03162 µM,0.239
same,relative viability,NCI-H1793; first compound 0.1 µM,0.251
same,relative viability,NCI-H1915; first compound 0.001 µM,0.237
same,relative viability,NCI-H1915; first compound 0.003162 µM,0.283
same,relative viability,NCI-H1915; first compound 0.01 µM,0.224
same,relative viability,NCI-H1915; first compound 0.03162 µM,0.151
same,relative viability,NCI-H1915; first compound 0.1 µM,0.164
same,relative viability,NCI-H1944; first compound 0.001 µM,0.378
same,relative viability,NCI-H1944; first compound 0.003162 µM,0.415
same,relative viability,NCI-H1944; first compound 0.01 µM,0.39
same,relative viability,NCI-H1944; first compound 0.03162 µM,0.383
same,relative viability,NCI-H1944; first compound 0.1 µM,0.322
same,relative viability,NCI-H2009; first compound 0.001 µM,0.232
same,relative viability,NCI-H2009; first compound 0.003162 µM,0.203
same,relative viability,NCI-H2009; first compound 0.01 µM,0.278
same,relative viability,NCI-H2009; first compound 0.03162 µM,0.2
same,relative viability,NCI-H2009; first compound 0.1 µM,0.197
same,relative viability,NCI-H2023; first compound 0.001 µM,0.485
same,relative viability,NCI-H2023; first compound 0.003162 µM,0.619
same,relative viability,NCI-H2023; first compound 0.01 µM,0.508
same,relative viability,NCI-H2023; first compound 0.03162 µM,0.329
same,relative viability,NCI-H2023; first compound 0.1 µM,0.433
same,relative viability,NCI-H2342; first compound 0.001 µM,0.786
same,relative viability,NCI-H2342; first compound 0.003162 µM,0.76
same,relative viability,NCI-H2342; first compound 0.01 µM,0.798
same,relative viability,NCI-H2342; first compound 0.03162 µM,0.711
same,relative viability,NCI-H2342; first compound 0.1 µM,0.842
same,relative viability,NCI-H2347; first compound 0.001 µM,0.267
same,relative viability,NCI-H2347; first compound 0.003162 µM,0.23
same,relative viability,NCI-H2347; first compound 0.01 µM,0.234
same,relative viability,NCI-H2347; first compound 0.03162 µM,0.268
same,relative viability,NCI-H2347; first compound 0.1 µM,0.271
same,relative viability,NCI-H322M; first compound 0.001 µM,0.538
same,relative viability,NCI-H322M; first compound 0.003162 µM,0.524
same,relative viability,NCI-H322M; first compound 0.01 µM,0.476
same,relative viability,NCI-H322M; first compound 0.03162 µM,0.613
same,relative viability,NCI-H322M; first compound 0.1 µM,0.465
same,relative viability,NCI-H358; first compound 0.001 µM,0.134
same,relative viability,NCI-H358; first compound 0.003162 µM,0.143
same,relative viability,NCI-H358; first compound 0.01 µM,0.13
same,relative viability,NCI-H358; first compound 0.03162 µM,0.116
same,relative viability,NCI-H358; first compound 0.1 µM,0.128
same,relative viability,NCI-H441; first compound 0.001 µM,0.437
same,relative viability,NCI-H441; first compound 0.003162 µM,0.569
same,relative viability,NCI-H441; first compound 0.01 µM,0.468
same,relative viability,NCI-H441; first compound 0.03162 µM,0.299
same,relative viability,NCI-H441; first compound 0.1 µM,0.37
same,relative viability,NCI-H522; first compound 0.01 µM,0.627
same,relative viability,NCI-H522; first compound 0.03162 µM,0.671
same,relative viability,NCI-H522; first compound 0.1 µM,0.596
same,relative viability,NCI-H647; first compound 0.001 µM,0.363
same,relative viability,NCI-H647; first compound 0.003162 µM,0.614
same,relative viability,NCI-H647; first compound 0.01 µM,0.352
same,relative viability,NCI-H647; first compound 0.03162 µM,0.18
same,relative viability,NCI-H647; first compound 0.1 µM,0.254
same,relative viability,NCI-H838; first compound 0.001 µM,0.462
same,relative viability,NCI-H838; first compound 0.003162 µM,0.617
same,relative viability,NCI-H838; first compound 0.01 µM,0.567
same,relative viability,NCI-H838; first compound 0.03162 µM,0.339
same,relative viability,NCI-H838; first compound 0.1 µM,0.494
same,relative viability,RERF-LC-KJ; first compound 0.001 µM,0.79
same,relative viability,RERF-LC-KJ; first compound 0.003162 µM,0.985
same,relative viability,RERF-LC-KJ; first compound 0.01 µM,0.985
same,relative viability,RERF-LC-KJ; first compound 0.03162 µM,0.764
same,relative viability,RERF-LC-KJ; first compound 0.1 µM,0.811
same,relative viability,SW 1573; first compound 0.001 µM,0.487
same,relative viability,SW 1573; first compound 0.003162 µM,0.72
same,relative viability,SW 1573; first compound 0.01 µM,0.456
same,relative viability,SW 1573; first compound 0.1 µM,0.314
same,relative viability,UMC-11; first compound 0.001 µM,0.635
same,relative viability,UMC-11; first compound 0.003162 µM,0.801
same,relative viability,UMC-11; first compound 0.01 µM,0.742
same,relative viability,UMC-11; first compound 0.03162 µM,0.446
same,relative viability,UMC-11; first compound 0.1 µM,0.317

# From the supplement of paper PMC10307832
